Toxic doses and inconclusive results are not listed. Cut-off read from the data, not from the text of the source: active = T/C of 150% or more; inactive = T/C below 125%.
Tested on: L1210 leukemia ip in BDF1 mice, survival T/C
Test: NCI In Vivo Anticancer Drug Screen. Data for tumor model L1210 Leukemia (intraperitoneal) in B6D2F1 (BDF1) mice
Conditions: endpoint: mean survival time, higher = longer survival
Outline: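 Read-out is survival time, reported as the treated-group measurement over the vehicle-control measurement.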

[1] = dose: 100.0 mg/kg/injection, schedule: Q01DX009 (ip), vehicle: saline with Tween-80
[2] = dose: 100.0 mg/kg/injection, schedule: Q04DX003 (ip), vehicle: saline with Tween-80
[3] = dose: 200.0 mg/kg/injection, schedule: Q04DX003 (ip), vehicle: saline with Tween-80
[4] = dose: 200.0 mg/kg/injection, schedule: Q01DX009 (ip), vehicle: saline with Tween-80
[5] = dose: 100.0 mg/kg/injection, schedule: Q01DX009 (ip), vehicle: Klucel (hydroxypropylcellulose) (HPC)
[6] = dose: 100.0 mg/kg/injection, schedule: Q01DX009 (ip), vehicle: saline
[7] = dose: 200.0 mg/kg/injection, schedule: Q01DX009 (ip), vehicle: saline
[8] = dose: 100.0 mg/kg/injection, schedule: Q01DX001 (ip), vehicle: saline
[9] = dose: 200.0 mg/kg/injection, schedule: Q01DX001 (ip), vehicle: saline
[10] = dose: 400.0 mg/kg/injection, schedule: Q01DX001 (ip), vehicle: saline
[11] = dose: 400.0 mg/kg/injection, schedule: Q04DX003 (ip), vehicle: saline with Tween-80
[12] = dose: 50.0 mg/kg/injection, schedule: Q01DX001 (ip), vehicle: saline
[13] = dose: 100.0 mg/kg/injection, schedule: Q04DX003 (ip), vehicle: other
[14] = dose: 200.0 mg/kg/injection, schedule: Q04DX003 (ip), vehicle: other
[15] = dose: 400.0 mg/kg/injection, schedule: Q04DX003 (ip), vehicle: other
[16] = dose: 200.0 mg/kg/injection, schedule: Q01DX009 (ip), vehicle: Klucel (hydroxypropylcellulose) (HPC)
[17] = dose: 400.0 mg/kg/injection, schedule: Q01DX009 (ip), vehicle: Klucel (hydroxypropylcellulose) (HPC)

Measured: T/C

CC12C=CC(=O)C=C1CCC1C3CCC(O)(C(=O)CO)C3(C)CC(O)C12F (stereo not drawn)
inactive: dose: 25.0 mg/kg/injection, schedule: Q04DX003 (sc), vehicle: steriod suspending solution 108 % of control | dose: 50.0 mg/kg/injection, schedule: Q04DX003 (sc), vehicle: steriod suspending solution 106 % of control | dose: 100.0 mg/kg/injection, schedule: Q04DX003 (sc), vehicle: steriod suspending solution 123 % of control | dose: 150.0 mg/kg/injection, schedule: Q04DX003 (sc), vehicle: steriod suspending solution 100 % of control | dose: 225.0 mg/kg/injection, schedule: Q04DX003 (sc), vehicle: steriod suspending solution 111 % of control | dose: 335.0 mg/kg/injection, schedule: Q04DX003 (sc), vehicle: steriod suspending solution 105 % of control

COc1ccc(CN(C)CCN(C)CCN(C)Cc2ccc(OC)cc2)cc1
inactive: dose: 25.0 mg/kg/injection, schedule: Q01DX009 (ip), vehicle: water 105 % of control | dose: 50.0 mg/kg/injection, schedule: Q01DX009 (ip), vehicle: water 99 % of control | dose: 100.0 mg/kg/injection, schedule: Q01DX009 (ip), vehicle: water 101 % of control

COC(=O)/C(Cl)=C(\Cl)C(=O)OC
inactive: [1] 95 % of control | dose: 100.0 mg/kg/injection, schedule: Q04DX003 (ip), vehicle: Klucel (hydroxypropylcellulose) (HPC) 96 % of control | [2] 102 % of control | [3] 107 % of control

CC(C)C(=O)Nc1cccc(O)c1
inactive: [1] 90 % of control | [4] 90 % of control

CCOC(=O)NCC(C)(CCN1CCOCC1)c1cccc2ccccc12 (stereo not drawn)
inactive: dose: 25.0 mg/kg/injection, schedule: Q04DX003 (ip), vehicle: saline with Tween-80 93 % of control | dose: 50.0 mg/kg/injection, schedule: Q04DX003 (ip), vehicle: saline with Tween-80 97 % of control | [5] 94 % of control | [2] 103 % of control

NC(=S)NNC(=O)/C=C/c1ccccc1
inactive: dose: 100.0 mg/kg/injection, schedule: Q04DX003 (ip), vehicle: saline sonified 105 % of control | dose: 200.0 mg/kg/injection, schedule: Q04DX003 (ip), vehicle: saline sonified 91 % of control | dose: 400.0 mg/kg/injection, schedule: Q04DX003 (ip), vehicle: saline sonified 91 % of control

CN=NC(C)(c1ccc(Cl)cc1)C(C)(N=NC)c1ccc(Cl)cc1 (stereo not drawn)
inactive: dose: 17.5 mg/kg/injection, schedule: Q01DX009 (ip), vehicle: Klucel (hydroxypropylcellulose) (HPC) 92 % of control | dose: 35.0 mg/kg/injection, schedule: Q01DX009 (ip), vehicle: Klucel (hydroxypropylcellulose) (HPC) 103 % of control | dose: 70.0 mg/kg/injection, schedule: Q01DX009 (ip), vehicle: Klucel (hydroxypropylcellulose) (HPC) 100 % of control

NC(N)=Nc1ccc(C(=O)Nc2ccc([N+](=O)[O-])cc2)cc1
inactive: dose: 50.0 mg/kg/injection, schedule: Q01DX009 (ip), vehicle: saline 101 % of control | [6] 94 % of control | dose: 100.0 mg/kg/injection, schedule: Q04DX003 (ip), vehicle: saline 95 % of control | [7] 90 % of control | dose: 200.0 mg/kg/injection, schedule: Q04DX003 (ip), vehicle: saline 101 % of control | dose: 400.0 mg/kg/injection, schedule: Q04DX003 (ip), vehicle: saline 97 % of control

COc1ccc(C)cc1NC(C)=O
inactive: [8] 98 % of control | [9] 100 % of control | [10] 98 % of control

Cc1cccc(C)[n+]1CC(=O)CCCCCCC(=O)C[n+]1c(C)cccc1C
inactive: dose: 0.25 mg/kg/injection, schedule: Q04DX003 (ip), vehicle: saline 98 % of control | dose: 0.5 mg/kg/injection, schedule: Q04DX003 (ip), vehicle: saline 105 % of control | dose: 1.0 mg/kg/injection, schedule: Q04DX003 (ip), vehicle: saline 101 % of control

N#CC(C#N)C(=O)c1ccccc1
inactive: dose: 12.5 mg/kg/injection, schedule: Q01DX009 (ip), vehicle: saline with Tween-80 100 % of control | dose: 25.0 mg/kg/injection, schedule: Q01DX009 (ip), vehicle: saline with Tween-80 100 % of control | dose: 50.0 mg/kg/injection, schedule: Q01DX009 (ip), vehicle: saline with Tween-80 96 % of control | [2] 95 % of control | [3] 95 % of control | [11] 89 % of control

Cc1cccc(C)c1Oc1ccc([N+](=O)[O-])cc1[N+](=O)[O-]
inactive: dose: 100.0 mg/kg/injection, schedule: Q01DX001 (ip), vehicle: Klucel (hydroxypropylcellulose) (HPC) 105 % of control | dose: 200.0 mg/kg/injection, schedule: Q01DX001 (ip), vehicle: Klucel (hydroxypropylcellulose) (HPC) 112 % of control | dose: 400.0 mg/kg/injection, schedule: Q01DX001 (ip), vehicle: Klucel (hydroxypropylcellulose) (HPC) 117 % of control

CSCCC(NC(=O)C(C)N)C(=O)O (stereo not drawn)
inactive: [8] 90 % of control | [9] 92 % of control | [10] 101 % of control

O=S(=O)(O)Nc1ccc(S(=O)(=O)O)c2ccccc12
inactive: [12] 102 % of control | [8] 93 % of control | [9] 96 % of control | [10] 98 % of control

O=C(/C=C/c1ccccc1)NN1CCOCC1
inactive: dose: 75.0 mg/kg/injection, schedule: Q01DX009 (ip), vehicle: Klucel (hydroxypropylcellulose) (HPC) 92 % of control | dose: 150.0 mg/kg/injection, schedule: Q01DX009 (ip), vehicle: Klucel (hydroxypropylcellulose) (HPC) 108 % of control | dose: 300.0 mg/kg/injection, schedule: Q01DX009 (ip), vehicle: Klucel (hydroxypropylcellulose) (HPC) 115 % of control

CCOc1ccccc1C(N)=O
inactive: [6] 96 % of control | [13] 96 % of control | [7] 107 % of control | [14] 104 % of control | dose: 400.0 mg/kg/injection, schedule: Q01DX009 (ip), vehicle: saline 102 % of control | [15] 105 % of control

O=C(CCCC(=O)N/N=C/c1ccc2c(c1)OCO2)N/N=C\c1ccc2c(c1)OCO2
inactive: [12] 103 % of control | [8] 103 % of control | [9] 106 % of control | [10] 100 % of control

C=COCCN1CCN(CCCN2c3ccccc3Sc3ccc(C(F)(F)F)cc32)CC1
inactive: dose: 3.13 mg/kg/injection, schedule: Q04DX003 (ip), vehicle: saline 102 % of control | dose: 6.25 mg/kg/injection, schedule: Q04DX003 (ip), vehicle: saline 102 % of control | dose: 12.5 mg/kg/injection, schedule: Q04DX003 (ip), vehicle: saline 107 % of control

CC(C)CCC1(CCBr)C(=O)NC(=Nc2ccccc2)NC1=O (stereo not drawn)
inactive: dose: 100.0 mg/kg/injection, schedule: Q01DX001 (ip), vehicle: carboxymethylcellulose (CMC) 96 % of control | dose: 200.0 mg/kg/injection, schedule: Q01DX001 (ip), vehicle: carboxymethylcellulose (CMC) 102 % of control | dose: 400.0 mg/kg/injection, schedule: Q01DX001 (ip), vehicle: carboxymethylcellulose (CMC) 94 % of control

O=C(NCCO)Nc1ccccc1Cl
inactive: dose: 100.0 mg/kg/injection, schedule: Q04DX002 (ip), vehicle: saline 103 % of control | dose: 200.0 mg/kg/injection, schedule: Q04DX002 (ip), vehicle: saline 100 % of control | dose: 400.0 mg/kg/injection, schedule: Q04DX002 (ip), vehicle: saline 100 % of control

CNS(=O)(=O)c1ccc(NC(=O)C(Cl)(Cl)Cl)cc1
inactive: dose: 100.0 mg/kg/injection, schedule: Q01DX001 (ip), vehicle: other 105 % of control | [5] 102 % of control | [13] 101 % of control | dose: 200.0 mg/kg/injection, schedule: Q01DX001 (ip), vehicle: other 104 % of control | [16] 95 % of control | [14] 101 % of control | dose: 400.0 mg/kg/injection, schedule: Q01DX001 (ip), vehicle: other 104 % of control | [17] 96 % of control | [15] 98 % of control

CC1CCCC(C)N1C(=O)Nc1cccc(F)c1 (stereo not drawn)
inactive: [5] 99 % of control | [16] 101 % of control | [17] 94 % of control

CC1(C)C(=O)C(C)(C)C1=Nc1ccccc1
inactive: [1] 95 % of control | [2] 108 % of control | [4] 94 % of control | [3] 106 % of control | dose: 400.0 mg/kg/injection, schedule: Q01DX009 (ip), vehicle: saline with Tween-80 97 % of control | [11] 106 % of control

Source: PubChem BioAssay AID248 (DTP/NCI, 2004)
